From PMC10755693, “Widespread Family of NAD^+-Dependent Sulfoquinovosidases at the Gateway to Sulfoquinovose Catabolism” (Journal of the American Chemical Society, 2023)

Molecular target: T1, ArSqgA (Arthrobacter sp. U41, UniProt Z9RXK5N058)
T1 construct: synthetic gene with codons harmonized for E. coli; homodimer; GH188
T1 sequence (Z9RXK5N058 14-392): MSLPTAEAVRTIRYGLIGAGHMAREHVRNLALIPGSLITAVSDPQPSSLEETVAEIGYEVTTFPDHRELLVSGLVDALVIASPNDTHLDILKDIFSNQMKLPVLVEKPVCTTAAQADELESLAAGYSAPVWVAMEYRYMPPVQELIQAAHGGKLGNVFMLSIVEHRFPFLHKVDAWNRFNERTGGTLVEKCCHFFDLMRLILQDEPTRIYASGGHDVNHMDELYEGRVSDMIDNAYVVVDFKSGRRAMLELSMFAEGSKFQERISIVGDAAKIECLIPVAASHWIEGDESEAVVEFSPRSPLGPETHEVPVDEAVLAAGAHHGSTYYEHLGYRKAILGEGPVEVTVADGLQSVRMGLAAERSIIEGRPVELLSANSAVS
Assay: X-ray crystal structure, […] Å
Assay type: binding
Settings: Rossmann domain cleft; binary complex

Compound: NC(=O)c1ccc[n+]([C@@H]2O[C@H](COP(=O)(O)OP(=O)(O)OC[C@H]3O[C@@H](n4cnc5c(N)ncnc54)[C@H](O)[C@@H]3O)[C@@H](O)[C@H]2O)c1 [NAD^+]
- X-ray crystal structure, 2.65 Å: modeling of a single molecule of NAD^+ bound in an extended conformation in each monomer
